By EC50 is commonly meant the concentration giving half of the maximal effect.

From patent publication US6013672A, “Agonists of metabotropic glutamate receptors and uses thereof” (UAB Research Foundation, priority 1997, dated 2000) come the findings set out here.

Structures are written as SMILES. Like-named read-outs stand apart in the source and are kept apart here.

Holding throughout (type): cell-based, rat
Assay [1] has as its system hippocampal astrocytes. The assay is described as follows: Extracellular glutamate [Glu]o released by astrocyte cultures (bioluminescence). The following applies: for activity at 100 µM: read-out: % of control [Glu]0.
The test system of assay [2] is hippocampal astrocytes. As to the kind of experiment: 3H-D-aspartate (glutamate/aspartate) uptake in astrocytes. Here is the method:
Uptake procedures were essentially identical to those previously described (Kimelberg et al. 1989; Ye et al., 1996). Briefly, 5-10 minutes before assessing uptake, astrocytes were washed and kept in a solution containing (in mM): NaCl 122, KCl 3, MgSO4 0.4, KH2 PO4 1.2, NaHCO3 25, D-glucose 10, and CaCl2 1.3, at 37° C., bubbled with 5%/95% CO2 /O2. Then the cells were switched to the above solution supplemented with 0.1 mM D-aspartate and 0.4 μCi/ml ^3 H-D-aspartate. Glutamate/aspartate uptake was determined over a 10 or 30 minutes period and was terminated by three quick washes, twice with ice cold 0.29 M sucrose solution with 10 mM Tris Nitrate, 0.5 mM Ca(NO3)2, (pH 7.40 by NaOH) and then with ice cold PBS. Cells were then harvested after a 30 minute incubation in 0.3 N NaOH solution (37° C.) and ^3 H activity was determined in a liquid scintillation counter (Beckman). Total uptake was normalized to protein content to eliminate variability due to cell number. Protein levels were determined using the bicinchoninic acid (BCA) assay (Pierce; Rockford, Ill.).

Assay [3] relates to hippocampal astrocytes. As to the kind of experiment: Intracellular glutamate content [Glu]i of astrocytes. The following applies: Rattus norvegicus, Astrocyte, 24 h; highest dose used (1 mM), chronic treatment. As for the experimental part:
For experiments in which [Glu]o concentrations were assessed by the bioluminescence method, cells were maintained in glutamate-depleted medium in the presence or absence of the agonists/antagonist combination of interest. […] After the incubation period, the stimulation media (containing drugs of interest) were aspirated and cells were washed twice with MEM and allowed to remain for 30 to 60 minutes in drug free MEM supplemented with 20 mM glucose prior to taking media samples for glutamate measurements. To assess acute drug effects, untreated cells were washed and the reagent of interest applied in glucose supplemented MEM. Cells were harvested in 0.3 N NaOH and neutralized with 0.3 N HCl. Aliquots were stored in -20° C. for protein and [Glu]i determination. Glutamate standards used for calibration were prepared in MEM (For [Glu]i in 0.15 N NaCl).

On to `N[C@]1(C(=O)O)CC[C@H](C(=O)O)C1` [1R3S-ACPD, (1R,3S)-1-aminocyclopentane-1,3-dicarboxylic acid], for which, in the assay with hippocampal astrocytes [1] (Rattus norvegicus, Astrocyte, 24 hours treatment, read-out: concentrations required to achieve any significant effect on glutamate release), the minimal effective concentration is greater than 50 µM. Moreover, the “effect on aspartate uptake” value in the assay on hippocampal astrocytes [2] (KA or NMDA 1 mM, 24 hours) is on record as “No significant effects”. Moreover, the activity at 1000 µM with hippocampal astrocytes [3] was 18.4 ± 0.9%.
On to `N[C@@]1(C(=O)O)CC[C@@H](C(=O)O)C1` [1S3R-ACPD, (1S,3R)-1-aminocyclopentane-1,3-dicarboxylic acid], for which the “more effective than 1R3S-ACPD in reducing glutamate release” value with hippocampal astrocytes [1] is “≈ 100 fold”. The “time to steady-state [Glu]o, acute application” value in the assay on hippocampal astrocytes [1] (50 μM in glutamate-free MEM) is reported as “≈ 2 hours”. The “steady-state [Glu]o, acute application” value in the assay with hippocampal astrocytes [1] (50 μM in glutamate-free, glucose-supplemented MEM) is 0.3 to 0.4 µM. Further, the “THA-induced glutamate release lower in treated cells” value with hippocampal astrocytes [1] (100 μM for 24 hours pretreatment, any THA concentration) is listed as 3-5 fold. For the same molecule, the “swelling induced glutamate release” value in the assay with hippocampal astrocytes [1] (100 μM, 24 h pretreatment, hypotonic 153 mOsm) is reported as “inhibited swelling induced glutamate release to some extent”. Moreover, the “preincubation time for maximal effects” value in the assay on hippocampal astrocytes [1] (200 μM) is on record as “≈ 14 hours”. Further, in the assay on hippocampal astrocytes [1] (200 μM, preincubation 0.5-36 hours), the “ET50 of attenuation of [Glu]o versus preincubation time” value was “≈ 1 hour”. In addition, in the assay on hippocampal astrocytes [1] (FIG. 7B), the “order of potency in mimicking ACPD effect on glutamate release” value was “S-4CPG>1S3R-ACPD>L-CCG-I>1S3S-ACPD=QA”. Moreover, the activity at 200 µM in the assay with hippocampal astrocytes [1] (Rattus norvegicus, Astrocyte, 14 h, 200 μM, ≈14 hours preincubation, read-out: [Glu]o levels at maximal effect) was less than 30%. The activity at 100 µM in the assay with hippocampal astrocytes [1] (Rattus norvegicus, Astrocyte, 408 h, cells P22, 17 days in vitro, 100 μM agonist) came out at 17.3 ± 1.2%; in the assay on hippocampal astrocytes [1] (Rattus norvegicus, Astrocyte, 408 h, cells P22, 17 days in vitro, 200 μM agonist), 14.8 ± 4.3%; in the assay on hippocampal astrocytes [1] (Rattus norvegicus, Astrocyte, 480 h, cells P16, 20 days in vitro, 10 μM agonist), 32.5 ± 4.7%; with hippocampal astrocytes [1] (Rattus norvegicus, Astrocyte, 528 h, cells P2, 22 days in vitro, 100 μM agonist) it was 73.4 ± 2.9%; in the assay with hippocampal astrocytes [1] (Rattus norvegicus, Astrocyte, 528 h, cells P13, 22 days in vitro, 100 μM agonist), 34.1 ± 5.6%; in the assay on hippocampal astrocytes [1] (Rattus norvegicus, Astrocyte, 552 h, cells P9, 23 days in vitro, 100 μM agonist), 45.8 ± 11.9%. Besides, the activity at 100 µM turned out to be 66.9 ± 9.9% with hippocampal astrocytes [1] (Rattus norvegicus, Astrocyte, cells P2, 30 days in vitro, 100 μM agonist); 66.5 ± 6.29% in the assay on hippocampal astrocytes [1] (Rattus norvegicus, Astrocyte, cells P9, 36 days in vitro, 100 μM agonist); 24.1 ± 7.8% in the assay with hippocampal astrocytes [1] (Rattus norvegicus, Astrocyte, cells P10, 32 days in vitro, 250 μM agonist); 29 ± 5.4% with hippocampal astrocytes [1] (Rattus norvegicus, Astrocyte, cells P22, 40 days in vitro, 250 μM agonist). Moreover, the EC50 with hippocampal astrocytes [1] (Rattus norvegicus, Astrocyte, 24 hours treatment, dose-effect curve, read-out: EC50, reduction of glutamate release) fell in the range of 2 to 5 µM. In the assay with hippocampal astrocytes [1] (cells treated for 24 hours, then MEM), the “effect on [Glu]o / glutamate release” value was “reduce [Glu]o in a dose-dependent manner”. For the same molecule, the activation at 500 µM in the assay on hippocampal astrocytes [2] (Rattus norvegicus, Astrocyte, 0.5 mM, 24 hour exposure, average of 25 experiments, read-out: glutamate/aspartate uptake enhanced by) came to 31 ± 2.7%. Moreover, the activity at 1000 µM in the assay with hippocampal astrocytes [3] was found to be 85.2 ± 5.1%.
